Assay results as given in paper PMC10548421, “Anticancer Potential of Diruthenium Complexes with Bridging Hydrocarbyl Ligands from Bioactive Alkynols” (Inorganic Chemistry, 2023).

What was measured:
Assay type in all cases: physicochemical
[1] = Cyclic voltammetry in CH2Cl2/[N^nBu4]PF6; details: CH2Cl2/[N^nBu4]PF6 0.2 M
Protocol: Cyclic voltammetry measurements were conducted by using a PalmSens4 instrument connected to a computer operating with the PSTrace5 electrochemical software. Prior to use, anhydrous CH2Cl2 (Merck) was stored under argon over 3 Å molecular sieves. Both [N^nBu4]PF6 (electrochemical grade) and FeCp2, obtained from Fluka, were utilized without requiring additional purification. Cyclic voltammetries were carried out under argon by utilizing a 0.2 M solution of [N^nBu4]PF6 in CH2Cl2 as the supporting electrolyte. The working electrode and the counter electrode were comprised of a platinum disk and a platinum gauze, respectively, both enclosed within a glass tube. A leakage-free miniature electrode of Ag/AgCl/KCl (from eDAQ) was employed as a reference. The three-electrode designed cell was subjected to predrying via vacuum heating and then filled with argon gas. The Schlenk-type design of the cell was effective in upholding both anhydrous and anaerobic conditions. Subsequently, a solution of supporting electrolyte, prepared under argon, was introduced into the cell, and the CV of the solvent was acquired. Afterward, the analyte was introduced, and voltammograms were recorded. Under the selected experimental conditions, the one-electron oxidation of ferrocene occurred at a standard potential of E° = +0.45 V relative to Ag/AgCl/KCl.

[2] = Stability in H2O/CH3OH solution (UV–vis); details: ca. 5:1 v/v
Protocol: […] The percentage of remaining complex in the solution was calculated by considering the change in absorbance at the characteristic wavelength. The identical procedure was employed to evaluate stability in MeOH and DMEM (about 1:5 v/v) solutions. DMEM stands for the cell culture medium (containing 1000 mg/L glucose and L-glutamine, excluding sodium bicarbonate and phenol red; reference D2902-Merck).

[3] = Octanol/water partition coefficient, shake-flask with UV–vis; details: 21 °C
Protocol: Partition coefficients (Pow), defined by the formula Pow = corg/caq, wherein corg and caq denote the molar concentrations of the specific compound in octanol and aqueous phases, respectively, were obtained using the shake-flask method with UV–vis measurements, following a previously described procedure (Table 3).[98] All the operations were carried out at 21 ± 1 °C. The wavelength corresponding to the maximum absorption of each compound within the range 350–430 nm was employed for quantifying using UV–vis techniques.

[4] = vs Ag/AgCl/KCl, peak potential of irreversible process

Row | Compound | Formal electrode potential, oxidation [1, 4] | Formal electrode potential, reduction [1, 4] | Formal electrode potential, oxidation ([1]; vs FeCp2 (in parentheses)) | Formal electrode potential, reduction ([1]; vs FeCp2 (in parentheses)) [V] | residual complex % in H2O/CH3OH ([2]; 30 min) [%] | residual complex % in H2O/CH3OH ([2]; 2 h) [%] | residual complex % in H2O/CH3OH ([2]; 18 h) [%] | Log Pow [3]
1 | O=[C]=[Ru]12([CH]3C=CC=C3)[CH]=C(C3(O)CCCC3)[C](=O)[Ru]1([CH]1C=CC=C1)[C]2=O (stereo not drawn) [2a, [Ru2Cp2(CO)2{μ–η^1:η^3-CH=C(1-cyclopentanol)C(=O)}]] | +0.55 V | –1.82 V | +0.11 V | −2.26 | 97 | 91 | 23 | >1.5
2 | CC12CCC(=O)C=C1CCC1C2CCC2(C)C1CCC2(O)C1=[CH][Ru]2(=[C]=O)([CH]3C=CC=C3)[C](=O)[Ru]2([CH]2C=CC=C2)[C]1=O (stereo not drawn) [2c, [Ru2Cp2(CO)2{μ–η^1:η^3-CHC(17-testosterone)C(O)}]] |  |  |  |  | 99 | 81 | 14 | >1.5
